Measured values: US6235509A (priority 1996, dated 2001)

System: chymotrypsin
Type: biochemical
Conditions: pH 8.0

Oc1cccnc1 [3-hydroxypyridine]
kinetics of the inhibition of chymotrypsin by AEBSF: not changed
